From US20070060639A1, “Compositions and methods for intranasal delivery of tricyclic cannabinoids” (University of Kentucky, priority 2005, published 2007)
Like-named read-outs stand apart in the source and are kept apart here.

Experiments:
[1] = intranasally at 1.14-1.33 mg/kg, rat model, period from 15 to 120 minutes after administration; cited from earlier work
[2] = rat; for F: F = (AUCIN × DoseIV)/(AUCIV × DoseIN); for concentration at 0 minutes / concentration at 0.5 minutes / concentration at 5 minutes / concentration at 15 minutes / concentration at 30 minutes / concentration at 60 minutes / concentration at 120 minutes / concentration at 160 minutes / concentration at 240 minutes / concentration at 300 minutes / concentration at 360 minutes / concentration at 420 minutes / concentration at 480 minutes: Mean plasma concentration of THC
[3] = male, Sprague-Dawley, plasma, inhaled or intranasal, 9.84 mg/kg
[4] = male, Sprague-Dawley, plasma, inhaled or intranasal, 9.91 mg/kg
[5] = male, Sprague-Dawley, plasma, iv, 0.99 mg/kg
[6] = male, Sprague-Dawley, plasma, iv, 1 mg/kg, Intravenous (1 mg/kg), propylene glycol, n = 3, rat
[7] = male, Sprague-Dawley, plasma, other: intranasal, 10 mg/kg, Intranasal (10 mg/kg), 90:10 propylene glycol/ethanol, n = 5, rat
[8] = male, Sprague-Dawley, plasma, other: intranasal, 10 mg/kg, Intranasal (10 mg/kg), propylene glycol, n = 3, rat

For `CCCCCc1cc(O)c2c(c1)OC(C)(C)[C@@H]1CCC(C)=C[C@@H]21` [THC, delta-9-tetrahydrocannabinol], the analgesic response [1] is listed as “an analgesic response was observed”, the F ([2]; Intranasal (IN), 90:10 propylene glycol/ethanol, 9.91 mg/kg) is listed as 0.138 and the F ([2]; Intranasal (IN), propylene glycol, 9.84 mg/kg) is listed as 0.136. It also gave an F ([2]; Intravenous (IV), propylene glycol, 0.99 mg/kg) of 1, an AUC [2, 3] of 428 ng·h/mL and a Cmax [2, 3] of 55 ng/mL. It also gave a Tmax [2, 3] of 3 h, an AUC [2, 4] of 434 ng·h/mL and a Cmax [2, 4] of 75 ng/mL. It also gave a Tmax [2, 4] of 2 h, an AUC [2, 5] of 314 ng·h/mL and a Cmax [2, 5] of 693 ng/mL. For the same compound, the Tmax [2, 5] was 0.0083 h, the concentration at 0 minutes [2, 6] was 0 ng/mL and the concentration at 0.5 minutes [2, 6] was 693 ng/mL. The concentration at 5 minutes [2, 6] was 136 ng/mL, the concentration at 15 minutes [2, 6] was 73 ng/mL and the concentration at 30 minutes [2, 6] was 48 ng/mL. For the same compound, the concentration at 60 minutes [2, 6] was 34 ng/mL, the concentration at 120 minutes [2, 6] was 24 ng/mL and the concentration at 160 minutes [2, 6] was 23 ng/mL. It also gave a concentration at 240 minutes [2, 6] of 21 ng/mL, a concentration at 300 minutes [2, 6] of 18 ng/mL and a concentration at 360 minutes [2, 6] of 22 ng/mL. It also gave a concentration at 420 minutes [2, 6] of 25 ng/mL, a concentration at 480 minutes [2, 6] of 12 ng/mL and a bioavailability ([2]; male, Sprague-Dawley, plasma, other: intranasal, 10 mg/kg) of ~14%. It also gave a concentration at 0 minutes [2, 7] of 0 ng/mL, a concentration at 0.5 minutes [2, 7] of 0 ng/mL and a concentration at 5 minutes [2, 7] of 0 ng/mL. For the same compound, the concentration at 15 minutes [2, 7] was 24 ng/mL, the concentration at 30 minutes [2, 7] was 43 ng/mL and the concentration at 60 minutes [2, 7] was 59 ng/mL. The concentration at 120 minutes [2, 7] was 75 ng/mL, the concentration at 160 minutes [2, 7] was 54 ng/mL and the concentration at 240 minutes [2, 7] was 24 ng/mL. For the same compound, the concentration at 300 minutes [2, 7] was 20 ng/mL, the concentration at 360 minutes [2, 7] was 19 ng/mL and the concentration at 420 minutes [2, 7] was 16 ng/mL. It also gave a concentration at 480 minutes [2, 7] of 11 ng/mL, a concentration at 0 minutes [2, 8] of 0 ng/mL and a concentration at 0.5 minutes [2, 8] of 0 ng/mL. It also gave a concentration at 5 minutes [2, 8] of 0 ng/mL, a concentration at 15 minutes [2, 8] of 3 ng/mL and a concentration at 30 minutes [2, 8] of 13 ng/mL. For the same compound, the concentration at 60 minutes [2, 8] was 26 ng/mL, the concentration at 120 minutes [2, 8] was 38 ng/mL and the concentration at 160 minutes [2, 8] was 36 ng/mL. The concentration at 240 minutes [2, 8] was 51 ng/mL, the concentration at 300 minutes [2, 8] was 19 ng/mL and the concentration at 360 minutes [2, 8] was 17 ng/mL. It also gave a concentration at 420 minutes [2, 8] of 16 ng/mL and a concentration at 480 minutes [2, 8] of 16 ng/mL.
